Literature values, collected in Sander's compilation of Henry's law constants.

Test: Henry solubility constant Hcp at 298.15 K (mol/(m3 Pa))
Conditions: cited value
[1] = reference: Burkholder et al. (2015)
[2] = reference: Burkholder et al. (2019)
[3] = reference: Sander et al. (2006)
[4] = reference: Sander et al. (2011)
[5] = reference: Barcelo and Hennion (1997)
[6] = reference: Fogg and Sangster (2003)

CCCCCCc1ccccc1 [hexylbenzene]
Henry solubility constant Hcp (reference: Brockbank (2013)): 0.0004

ClCC(Cl)CCl [1,2,3-trichloropropane]
Henry solubility constant Hcp (reference: Brockbank (2013)): 0.033
Henry solubility constant Hcp [1]: 0.036
Henry solubility constant Hcp [2]: 0.036

O=[N+]([O-])c1ccccc1O [2-nitrophenol]
Henry solubility constant Hcp (reference: Goldstein (1982)): 0.69

OI [hypoiodous acid]
Henry solubility constant Hcp (reference: Palmer et al. (1985)): > 4.1

Cc1ccc(Br)cc1 [1-bromo-4-methylbenzene]
Henry solubility constant Hcp (reference: Brockbank (2013)): 0.0036

Clc1ccccc1 [chlorobenzene]
Henry solubility constant Hcp (reference: Brockbank (2013)): 0.0026
Henry solubility constant Hcp (reference: Goldstein (1982)): 0.0025

O=[O+][O-] [ozone]
Henry solubility constant Hcp (reference: Biń (2005)): 7.6e-05
Henry solubility constant Hcp [1]: 0.0001
Henry solubility constant Hcp [2]: 0.0001
Henry solubility constant Hcp (reference: Perry and Chilton (1973)): 0.00012
Henry solubility constant Hcp [3]: 0.0001
Henry solubility constant Hcp [4]: 0.0001
Henry solubility constant Hcp (reference: Warneck (2003)): 0.00011

S=C([S-])NCCNC(=S)[S-].[Zn+2] [zineb]
Henry solubility constant Hcp (reference: MacBean (2012b)): > 3700

O=C(O)C(Cl)(Cl)Cl [trichloroethanoic acid]
Henry solubility constant Hcp [1]: 730
Henry solubility constant Hcp [2]: 730
Henry solubility constant Hcp [4]: 730

CCCCCCC=O [heptanal]
Henry solubility constant Hcp (reference: Brockbank (2013)): 0.034

CCNc1nc(Cl)nc(NCC)n1 [simazine]
Henry solubility constant Hcp [5]: 29

FC(F)(F)F [tetrafluoromethane]
Henry solubility constant Hcp [1]: 2.1e-06
Henry solubility constant Hcp [2]: 2.1e-06
Henry solubility constant Hcp [4]: 2.1e-06

[Kr] [krypton]
Henry solubility constant Hcp (reference: Clever (1979b)): 2.5e-05

CCCl [chloroethane]
Henry solubility constant Hcp (reference: Brockbank (2013)): 0.00081
Henry solubility constant Hcp [1]: 0.00083
Henry solubility constant Hcp [2]: 0.00081
Henry solubility constant Hcp (reference: Goldstein (1982)): 0.00068

CCCCC(C)C [2-methylhexane]
Henry solubility constant Hcp (reference: Brockbank (2013)): 2.9e-06

CC(C)OC(=O)N[C@@H](C(=O)N[C@H](C)c1nc2ccc(F)cc2s1)C(C)C [benthiavalicarb isopropyl]
Henry solubility constant Hcp (reference: MacBean (2012b)): 110

FC(F)OC(F)(F)C(F)Cl (stereo not drawn) [2-chloro-1,1,2-trifluoroethyl difluoromethyl ether]
Henry solubility constant Hcp [6]: 0.0003

CCOP(=S)(OCC)SCSCC [phorate]
Henry solubility constant Hcp [5]: 0.015

CCCCCN [1-pentanamine]
Henry solubility constant Hcp (reference: Brockbank (2013)): 0.43

ClC=CCCl [1,3-dichloropropene]
Henry solubility constant Hcp [5]: 2.4e-05
Henry solubility constant Hcp (reference: Goldstein (1982)): 0.0028
Henry solubility constant Hcp (reference: Horvath and Getzen (1999)): 0.0028

NCl [chloramine]
Henry solubility constant Hcp [1]: 0.86
Henry solubility constant Hcp [2]: 0.86
Henry solubility constant Hcp [3]: 0.86
Henry solubility constant Hcp [4]: 0.86

O=C(O)C1(C(=O)Nc2ccc(Cl)cc2Cl)CC1 [cyclanilide]
Henry solubility constant Hcp (reference: MacBean (2012b)): 14000

C=Cc1ccccc1 [ethenylbenzene]
Henry solubility constant Hcp (reference: Brockbank (2013)): 0.0036
Henry solubility constant Hcp [6]: 0.0038
Henry solubility constant Hcp (reference: Goldstein (1982)): 0.0038

N#Cc1c(Cl)c(Cl)c(Cl)c(C#N)c1Cl [2,4,5,6-tetrachloro-1,3-dicyanobenzene]
Henry solubility constant Hcp (reference: MacBean (2012b)): 39

c1ccc(-c2ccccc2)cc1 [biphenyl]
Henry solubility constant Hcp (reference: Brockbank (2013)): 0.036

N#CCc1ccccc1 [benzeneacetonitrile]
Henry solubility constant Hcp (reference: Brockbank (2013)): 1.1

COCOC [dimethoxymethane]
Henry solubility constant Hcp (reference: Brockbank (2013)): 0.061
Henry solubility constant Hcp (reference: Pierotti et al. (1959)): 0.057

CCI [iodoethane]
Henry solubility constant Hcp (reference: Brockbank (2013)): 0.0015
Henry solubility constant Hcp [6]: 0.0015

CC(=O)C(C)C [3-methyl-2-butanone]
Henry solubility constant Hcp (reference: Brockbank (2013)): 0.11

ClC=C(Cl)Cl [trichloroethene]
Henry solubility constant Hcp (reference: Brockbank (2013)): 0.001
Henry solubility constant Hcp [1]: 0.0011
Henry solubility constant Hcp [2]: 0.0011
Henry solubility constant Hcp [6]: 0.001
Henry solubility constant Hcp (reference: Goldstein (1982)): 0.00088

CC(C1CC1)C(O)(Cn1cncn1)c1ccc(Cl)cc1 (stereo not drawn) [cyproconazole]
Henry solubility constant Hcp [5]: 130

CNC(=O)Oc1cc(C)c(SC)c(C)c1 [methiocarb]
Henry solubility constant Hcp (reference: MacBean (2012b)): 8400

Cc1ccc(Cl)cc1Cl [2,4-dichloro-1-methylbenzene]
Henry solubility constant Hcp (reference: Brockbank (2013)): 0.0027

CCOP(=S)(OCC)SCSC(C)(C)C [terbufos]
Henry solubility constant Hcp [5]: 0.0099

C1=CCC=CC1 [1,4-cyclohexadiene]
Henry solubility constant Hcp (reference: Brockbank (2013)): 0.0013

O=C(NC(=O)c1c(F)cccc1F)Nc1ccc(Cl)cc1 [diflubenzuron]
Henry solubility constant Hcp [5]: 21

O=C(O)CF [fluoroethanoic acid]
Henry solubility constant Hcp [1]: 800
Henry solubility constant Hcp [2]: 800
Henry solubility constant Hcp [4]: 800
